Laboratory results: ChEMBL document CHEMBL5291721, “A preclinical secondary pharmacology resource illuminates target-adverse drug reaction associations of marketed drugs” (Nat Commun, 2023)

What was measured:
[1] = target: cGMP-inhibited 3',5'-cyclic phosphodiesterase 3A (Homo sapiens, UniProt Q14432); type: functional
[2] = target: T1, Muscarinic acetylcholine receptor M2 (Homo sapiens, UniProt P08172); type: functional, cell-based
T1 sequence (P08172 whole entry): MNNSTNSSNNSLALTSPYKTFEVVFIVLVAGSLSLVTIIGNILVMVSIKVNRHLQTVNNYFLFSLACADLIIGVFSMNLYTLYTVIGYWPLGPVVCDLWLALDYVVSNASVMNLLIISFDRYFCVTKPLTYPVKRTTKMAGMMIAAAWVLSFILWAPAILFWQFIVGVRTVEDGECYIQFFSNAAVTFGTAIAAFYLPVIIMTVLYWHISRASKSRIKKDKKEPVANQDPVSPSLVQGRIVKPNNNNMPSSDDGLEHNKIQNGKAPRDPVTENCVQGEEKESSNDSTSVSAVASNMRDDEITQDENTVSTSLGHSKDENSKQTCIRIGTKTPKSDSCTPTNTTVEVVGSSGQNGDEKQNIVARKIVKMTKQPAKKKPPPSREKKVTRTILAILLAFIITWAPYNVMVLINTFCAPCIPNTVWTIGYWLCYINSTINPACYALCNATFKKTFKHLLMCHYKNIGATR

[3] = target: Glutamate receptor ionotropic, NMDA 1 (Rattus norvegicus, UniProt P35439)
[4] = target: T2, Type-1 angiotensin II receptor (Homo sapiens, UniProt P30556)
T2 sequence (P30556 whole entry): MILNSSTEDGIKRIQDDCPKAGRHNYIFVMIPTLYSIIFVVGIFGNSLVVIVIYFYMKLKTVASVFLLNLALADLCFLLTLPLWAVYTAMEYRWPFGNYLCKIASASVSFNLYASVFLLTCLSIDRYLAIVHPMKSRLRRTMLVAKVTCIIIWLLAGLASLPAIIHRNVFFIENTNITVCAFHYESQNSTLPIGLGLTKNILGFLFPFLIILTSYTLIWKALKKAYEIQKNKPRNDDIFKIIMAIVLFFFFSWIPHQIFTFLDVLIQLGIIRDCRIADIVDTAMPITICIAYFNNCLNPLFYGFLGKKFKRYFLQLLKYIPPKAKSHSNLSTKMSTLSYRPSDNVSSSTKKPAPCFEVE

[5] = target: T3, Alpha-2A adrenergic receptor (Homo sapiens, UniProt P08913); type: functional, cell-based
T3 sequence (P08913 whole entry): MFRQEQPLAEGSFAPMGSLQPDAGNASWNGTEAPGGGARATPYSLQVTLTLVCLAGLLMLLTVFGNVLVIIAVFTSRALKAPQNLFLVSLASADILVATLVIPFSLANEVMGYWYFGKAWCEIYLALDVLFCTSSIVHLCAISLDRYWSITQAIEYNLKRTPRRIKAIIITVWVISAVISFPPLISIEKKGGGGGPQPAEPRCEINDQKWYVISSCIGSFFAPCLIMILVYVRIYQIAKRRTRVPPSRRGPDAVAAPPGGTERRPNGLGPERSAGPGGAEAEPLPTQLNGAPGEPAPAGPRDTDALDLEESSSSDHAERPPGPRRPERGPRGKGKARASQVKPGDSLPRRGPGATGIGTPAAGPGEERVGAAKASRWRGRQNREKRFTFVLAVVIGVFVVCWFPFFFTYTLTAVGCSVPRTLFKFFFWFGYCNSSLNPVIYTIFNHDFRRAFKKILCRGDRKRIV

[6] = target: Voltage-dependent L-type calcium channel subunit alpha-1C (Rattus norvegicus, UniProt P22002); type: functional
Chain of Voltage-dependent L-type calcium channel subunit alpha-1C (P22002 whole entry): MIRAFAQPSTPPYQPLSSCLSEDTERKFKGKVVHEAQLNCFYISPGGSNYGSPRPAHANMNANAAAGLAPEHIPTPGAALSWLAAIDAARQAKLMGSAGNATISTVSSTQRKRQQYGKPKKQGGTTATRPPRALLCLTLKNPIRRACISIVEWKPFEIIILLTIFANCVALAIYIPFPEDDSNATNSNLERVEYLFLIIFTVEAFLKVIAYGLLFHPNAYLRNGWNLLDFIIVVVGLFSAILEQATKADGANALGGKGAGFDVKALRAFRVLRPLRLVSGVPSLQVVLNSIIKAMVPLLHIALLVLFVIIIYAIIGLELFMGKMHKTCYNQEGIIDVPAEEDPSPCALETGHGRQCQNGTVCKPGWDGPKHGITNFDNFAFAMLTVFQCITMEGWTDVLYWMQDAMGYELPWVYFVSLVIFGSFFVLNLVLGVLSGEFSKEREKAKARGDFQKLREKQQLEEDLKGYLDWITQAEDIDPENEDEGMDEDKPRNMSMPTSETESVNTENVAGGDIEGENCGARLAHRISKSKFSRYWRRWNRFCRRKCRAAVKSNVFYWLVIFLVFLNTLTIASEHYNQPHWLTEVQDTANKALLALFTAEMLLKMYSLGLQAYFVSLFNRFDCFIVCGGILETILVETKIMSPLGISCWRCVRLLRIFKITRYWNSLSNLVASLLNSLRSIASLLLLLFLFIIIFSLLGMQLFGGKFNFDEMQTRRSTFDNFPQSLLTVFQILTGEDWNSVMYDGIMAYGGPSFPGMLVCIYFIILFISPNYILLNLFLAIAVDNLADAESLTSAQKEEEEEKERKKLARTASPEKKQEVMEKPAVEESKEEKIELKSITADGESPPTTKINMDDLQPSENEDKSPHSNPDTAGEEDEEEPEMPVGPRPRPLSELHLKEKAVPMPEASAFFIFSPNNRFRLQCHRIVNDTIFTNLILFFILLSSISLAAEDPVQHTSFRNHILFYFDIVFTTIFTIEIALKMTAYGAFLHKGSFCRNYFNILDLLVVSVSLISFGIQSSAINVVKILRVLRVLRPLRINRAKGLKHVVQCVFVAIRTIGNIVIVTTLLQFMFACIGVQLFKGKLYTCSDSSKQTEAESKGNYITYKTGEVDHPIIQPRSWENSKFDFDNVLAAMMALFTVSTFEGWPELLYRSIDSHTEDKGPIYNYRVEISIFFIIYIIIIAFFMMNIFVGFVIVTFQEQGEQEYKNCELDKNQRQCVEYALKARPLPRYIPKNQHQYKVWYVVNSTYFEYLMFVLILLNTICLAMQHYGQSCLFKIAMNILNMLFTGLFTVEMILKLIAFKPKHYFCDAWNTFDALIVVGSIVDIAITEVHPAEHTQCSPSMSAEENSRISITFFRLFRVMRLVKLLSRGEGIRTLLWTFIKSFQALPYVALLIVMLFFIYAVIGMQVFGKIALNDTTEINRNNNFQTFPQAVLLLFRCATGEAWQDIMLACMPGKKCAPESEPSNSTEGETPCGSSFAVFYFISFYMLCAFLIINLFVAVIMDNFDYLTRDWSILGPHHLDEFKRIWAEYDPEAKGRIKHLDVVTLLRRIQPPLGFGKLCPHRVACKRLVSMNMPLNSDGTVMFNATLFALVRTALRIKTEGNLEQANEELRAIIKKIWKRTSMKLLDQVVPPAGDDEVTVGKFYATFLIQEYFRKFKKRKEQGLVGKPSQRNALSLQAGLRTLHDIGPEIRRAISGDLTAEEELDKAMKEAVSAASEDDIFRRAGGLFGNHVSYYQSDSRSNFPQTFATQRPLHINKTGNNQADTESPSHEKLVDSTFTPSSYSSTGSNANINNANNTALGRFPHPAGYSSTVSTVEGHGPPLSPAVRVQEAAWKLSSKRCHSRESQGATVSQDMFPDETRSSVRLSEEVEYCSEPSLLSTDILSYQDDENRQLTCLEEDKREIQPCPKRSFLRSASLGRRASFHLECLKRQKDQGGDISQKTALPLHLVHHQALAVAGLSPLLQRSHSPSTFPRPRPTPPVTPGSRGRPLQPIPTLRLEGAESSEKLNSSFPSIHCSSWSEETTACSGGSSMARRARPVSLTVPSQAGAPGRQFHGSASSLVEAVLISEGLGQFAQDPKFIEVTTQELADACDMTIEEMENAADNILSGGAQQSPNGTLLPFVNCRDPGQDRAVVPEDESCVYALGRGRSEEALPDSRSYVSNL

[7] = target: Beta-2 adrenergic receptor (Homo sapiens, UniProt P07550)
Chain of Beta-2 adrenergic receptor (P07550 whole entry): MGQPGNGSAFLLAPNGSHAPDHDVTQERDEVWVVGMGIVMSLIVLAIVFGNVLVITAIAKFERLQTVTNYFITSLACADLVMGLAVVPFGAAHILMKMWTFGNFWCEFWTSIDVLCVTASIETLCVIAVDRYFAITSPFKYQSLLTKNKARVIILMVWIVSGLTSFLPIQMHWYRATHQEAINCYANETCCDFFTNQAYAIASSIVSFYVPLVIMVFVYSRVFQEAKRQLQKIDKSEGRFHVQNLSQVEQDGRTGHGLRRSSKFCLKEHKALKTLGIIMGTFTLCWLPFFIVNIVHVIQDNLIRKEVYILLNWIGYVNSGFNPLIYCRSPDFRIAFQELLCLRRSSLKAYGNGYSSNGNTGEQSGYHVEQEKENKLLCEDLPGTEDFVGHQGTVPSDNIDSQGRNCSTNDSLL

Melanocortin receptor 3 = Melanocortin receptor 3 (Homo sapiens, UniProt P41968)
Chain of Melanocortin receptor 3 (P41968 whole entry): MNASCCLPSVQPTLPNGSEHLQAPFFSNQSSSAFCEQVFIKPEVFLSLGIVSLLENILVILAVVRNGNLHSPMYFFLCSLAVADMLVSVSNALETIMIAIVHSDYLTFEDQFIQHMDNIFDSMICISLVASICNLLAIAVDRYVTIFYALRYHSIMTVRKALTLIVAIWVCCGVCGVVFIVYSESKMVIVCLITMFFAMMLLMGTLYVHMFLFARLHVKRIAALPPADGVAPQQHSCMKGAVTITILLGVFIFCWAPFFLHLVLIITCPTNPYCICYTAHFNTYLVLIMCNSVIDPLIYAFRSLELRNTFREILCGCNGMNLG

Progesterone receptor = target: T4, Progesterone receptor (Homo sapiens, UniProt P06401); type: functional
T4 sequence (P06401 whole entry): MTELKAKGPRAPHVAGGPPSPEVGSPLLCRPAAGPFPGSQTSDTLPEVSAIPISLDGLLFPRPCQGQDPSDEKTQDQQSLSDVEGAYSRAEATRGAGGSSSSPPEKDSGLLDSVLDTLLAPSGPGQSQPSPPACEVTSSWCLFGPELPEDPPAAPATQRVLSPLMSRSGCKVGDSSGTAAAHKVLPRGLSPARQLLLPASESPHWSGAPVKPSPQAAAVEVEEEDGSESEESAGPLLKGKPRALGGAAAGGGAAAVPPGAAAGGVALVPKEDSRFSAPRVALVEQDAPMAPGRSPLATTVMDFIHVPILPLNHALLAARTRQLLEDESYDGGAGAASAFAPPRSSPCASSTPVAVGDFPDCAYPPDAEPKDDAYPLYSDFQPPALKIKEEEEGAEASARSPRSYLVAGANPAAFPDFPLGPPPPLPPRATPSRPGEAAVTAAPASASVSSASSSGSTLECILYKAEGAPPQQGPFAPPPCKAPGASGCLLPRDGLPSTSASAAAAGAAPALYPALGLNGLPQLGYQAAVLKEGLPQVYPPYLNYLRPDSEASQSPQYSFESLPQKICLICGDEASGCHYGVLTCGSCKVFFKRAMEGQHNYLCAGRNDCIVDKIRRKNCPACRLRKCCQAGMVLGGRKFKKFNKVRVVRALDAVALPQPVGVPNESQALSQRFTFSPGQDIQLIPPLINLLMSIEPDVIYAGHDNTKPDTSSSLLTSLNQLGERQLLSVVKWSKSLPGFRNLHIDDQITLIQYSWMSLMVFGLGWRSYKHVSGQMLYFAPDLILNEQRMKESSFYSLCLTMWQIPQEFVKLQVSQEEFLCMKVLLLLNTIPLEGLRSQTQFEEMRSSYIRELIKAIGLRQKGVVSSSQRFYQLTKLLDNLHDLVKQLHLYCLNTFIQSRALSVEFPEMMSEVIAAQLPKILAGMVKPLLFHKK
Note: assay procedure not described here.

Chain of cGMP-inhibited 3',5'-cyclic phosphodiesterase 3A (Q14432 whole entry): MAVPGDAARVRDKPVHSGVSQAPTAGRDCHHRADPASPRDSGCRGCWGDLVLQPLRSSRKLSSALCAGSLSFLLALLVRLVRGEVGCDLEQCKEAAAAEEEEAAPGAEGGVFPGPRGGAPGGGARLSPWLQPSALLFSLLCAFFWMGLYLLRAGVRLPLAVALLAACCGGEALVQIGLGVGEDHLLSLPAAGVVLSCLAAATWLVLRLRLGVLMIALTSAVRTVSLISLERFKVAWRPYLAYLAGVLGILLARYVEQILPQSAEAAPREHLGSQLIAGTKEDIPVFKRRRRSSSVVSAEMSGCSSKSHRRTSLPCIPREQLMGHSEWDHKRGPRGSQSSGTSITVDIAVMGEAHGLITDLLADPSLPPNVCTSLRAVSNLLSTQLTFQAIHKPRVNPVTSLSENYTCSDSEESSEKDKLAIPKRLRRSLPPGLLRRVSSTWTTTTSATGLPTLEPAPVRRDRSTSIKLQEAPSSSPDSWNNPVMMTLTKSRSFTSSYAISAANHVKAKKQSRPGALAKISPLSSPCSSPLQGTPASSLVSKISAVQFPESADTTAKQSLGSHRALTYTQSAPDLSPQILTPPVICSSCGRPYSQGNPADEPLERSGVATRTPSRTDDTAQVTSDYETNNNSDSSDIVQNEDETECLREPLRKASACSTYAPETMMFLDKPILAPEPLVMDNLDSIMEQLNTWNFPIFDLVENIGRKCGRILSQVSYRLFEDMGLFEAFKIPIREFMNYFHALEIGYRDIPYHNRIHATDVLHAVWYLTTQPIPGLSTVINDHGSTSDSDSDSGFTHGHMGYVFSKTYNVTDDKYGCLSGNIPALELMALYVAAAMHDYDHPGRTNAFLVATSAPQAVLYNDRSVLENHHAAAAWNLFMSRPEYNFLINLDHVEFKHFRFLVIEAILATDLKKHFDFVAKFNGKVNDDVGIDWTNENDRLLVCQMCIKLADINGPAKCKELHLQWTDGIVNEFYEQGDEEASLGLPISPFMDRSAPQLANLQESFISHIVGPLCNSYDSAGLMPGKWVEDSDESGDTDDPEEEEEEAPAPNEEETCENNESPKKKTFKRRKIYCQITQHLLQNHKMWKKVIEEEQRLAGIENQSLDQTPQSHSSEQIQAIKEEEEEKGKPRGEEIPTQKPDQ

In the case of `C[C@]12CC[C@H](O)CC1=CC[C@@H]1[C@@H]2CC[C@]2(C)C(c3cccnc3)=CC[C@@H]12` [ABIRATERONE], the AC50 [1] is reported as > 30 µM, the AC50 [2] is reported as > 10 µM and the AC50 [3] is reported as > 10 µM. The AC50 [4] was > 30 µM, the AC50 [5] was > 10 µM and the AC50 [6] was > 10 µM. For the same molecule, the AC50 [7] was > 30 µM and the AC50 (Melanocortin receptor 3) was > 30 µM.

With `CN(C)C(=O)Oc1cc(OC(=O)N(C)C)cc(C(O)CNC(C)(C)C)c1` (centres undefined) [BAMBUTEROL] the AC50 [4] was > 30 µM, the AC50 (Progesterone receptor) was > 30 µM and the AC50 [7] was 9.7 µM. The AC50 (Melanocortin receptor 3) was > 30 µM.

In the case of `C[C@H]1C[C@H]2[C@@H]3CCC4=CC(=O)C=C[C@]4(C)[C@@]3(Cl)[C@@H](O)C[C@]2(C)[C@@]1(O)C(=O)CO` [BECLOMETHASONE], the AC50 [1] is reported as > 30 µM, the AC50 [3] is reported as > 10 µM and the AC50 [4] is reported as > 30 µM. For the same molecule, the AC50 [6] was > 10 µM, the AC50 [7] was > 10 µM and the AC50 (Melanocortin receptor 3) was > 30 µM.

For `NS(=O)(=O)c1cc(C2(O)NC(=O)c3ccccc32)ccc1Cl` (centres undefined) [CHLORTHALIDONE], the AC50 [1] was > 30 µM, the AC50 [2] was > 10 µM and the AC50 [3] was > 10 µM. The AC50 [4] was > 10 µM, the AC50 [5] was > 10 µM and the AC50 [6] was > 10 µM. The AC50 (Progesterone receptor) was > 10 µM, the AC50 [7] was > 10 µM and the AC50 (Melanocortin receptor 3) was > 10 µM.

In the case of `C[C@@H]1CCC[C@H](C)N1NC(=O)c1ccc(Cl)c(S(N)(=O)=O)c1` [CLOPAMIDE], the AC50 [1] is reported as > 30 µM, the AC50 [2] is reported as > 30 µM and the AC50 [3] is reported as > 30 µM. For the same molecule, the AC50 [4] was > 30 µM, the AC50 [5] was > 30 µM and the AC50 [6] was > 30 µM. For the same molecule, the AC50 (Progesterone receptor) was > 30 µM, the AC50 [7] was > 30 µM and the AC50 (Melanocortin receptor 3) was > 30 µM.

For `COc1ccc2c(c1)[C@]13CCCC[C@@H]1[C@H](C2)N(C)CC3` [DEXTROMETHORPHAN], the AC50 [1] was > 30 µM, the AC50 [2] was > 10 µM and the AC50 [4] was > 30 µM. The AC50 [5] was > 10 µM, the AC50 [6] was > 10 µM and the AC50 [7] was > 10 µM. The AC50 (Melanocortin receptor 3) was > 30 µM.

`O=c1oc2ccccc2c(O)c1Cc1c(O)c2ccccc2oc1=O` [DICUMAROL] was tested, and the AC50 [1] was > 10 µM, the AC50 [2] was > 10 µM and the AC50 [3] was > 10 µM. For the same molecule, the AC50 [4] was > 10 µM, the AC50 [5] was > 10 µM and the AC50 [6] was > 10 µM. For the same molecule, the AC50 (Progesterone receptor) was > 10 µM, the AC50 [7] was > 10 µM and the AC50 (Melanocortin receptor 3) was > 10 µM.

With `CCn1cc(C(=O)O)c(=O)c2cc(F)c(N3CCNCC3)nc21` [ENOXACIN] the AC50 [1] was > 30 µM, the AC50 [2] was > 10 µM and the AC50 [3] was > 10 µM. The AC50 [4] was > 30 µM, the AC50 [5] was > 10 µM and the AC50 [6] was > 10 µM. For the same molecule, the AC50 [7] was > 10 µM and the AC50 (Melanocortin receptor 3) was > 30 µM.

In the case of `O=C(O)CSCC(=O)NC1CCSC1=O` (centres undefined) [ERDOSTEINE], the AC50 [1] is reported as > 30 µM, the AC50 [2] is reported as > 30 µM and the AC50 [3] is reported as > 30 µM. The AC50 [4] was > 30 µM, the AC50 [5] was > 30 µM and the AC50 [6] was > 30 µM. For the same molecule, the AC50 (Progesterone receptor) was > 30 µM, the AC50 [7] was > 30 µM and the AC50 (Melanocortin receptor 3) was > 30 µM.

`COc1cccc(N(C)C(=S)Oc2ccc3c(c2)CCCC3)n1` [LIRANAFTATE] was tested, and the AC50 [1] was > 30 µM, the AC50 [2] was > 30 µM and the AC50 [3] was > 30 µM. For the same molecule, the AC50 [4] was > 30 µM, the AC50 [5] was > 30 µM and the AC50 [6] was > 30 µM. For the same molecule, the AC50 (Progesterone receptor) was > 30 µM, the AC50 [7] was > 30 µM and the AC50 (Melanocortin receptor 3) was > 30 µM.

`N=C(N)c1ccc2cc(OC(=O)c3ccc(N=C(N)N)cc3)ccc2c1` [NAFAMOSTAT] was tested, and the AC50 [1] was > 30 µM, the AC50 [2] was > 30 µM and the AC50 [3] was 0.29 µM. For the same molecule, the AC50 [4] was > 30 µM, the AC50 [5] was > 30 µM and the AC50 [6] was > 30 µM. The AC50 (Progesterone receptor) was > 30 µM and the AC50 (Melanocortin receptor 3) was > 30 µM.

Molecule `c1ccc2c(CC3=NCCN3)cccc2c1` [NAPHAZOLINE] has an AC50 [5] of 0.043 µM.

In the case of `CNCCCC1c2ccccc2C=Cc2ccccc21` [PROTRIPTYLINE], the AC50 [1] is reported as > 30 µM, the AC50 [2] is reported as > 10 µM and the AC50 [3] is reported as > 10 µM. For the same molecule, the AC50 [4] was > 10 µM, the AC50 [6] was > 10 µM and the AC50 (Progesterone receptor) was > 10 µM. The AC50 (Melanocortin receptor 3) was > 10 µM.

With `O=C(CCCN1CCC2(CC1)C(=O)NCN2c1ccccc1)c1ccc(F)cc1` [SPIPERONE] the AC50 [1] was > 30 µM, the AC50 [3] was > 30 µM and the AC50 [4] was > 30 µM. The AC50 [5] was 0.98 µM, the AC50 (Progesterone receptor) was > 30 µM and the AC50 (Melanocortin receptor 3) was > 30 µM.

For `CCSc1ccc2c(c1)N(CCCN1CCN(C)CC1)c1ccccc1S2` [THIETHYLPERAZINE], the AC50 [1] was > 30 µM, the AC50 [2] was > 30 µM and the AC50 (Progesterone receptor) was > 30 µM. For the same molecule, the AC50 (Melanocortin receptor 3) was 18 µM.
